target: FXa (Homo sapiens, UniProt P00742); experiment: Inhibition of factor Xa (Table 1, Pharmacological Data); format: biochemical
Sequence (P00742 235-488 limits assumed): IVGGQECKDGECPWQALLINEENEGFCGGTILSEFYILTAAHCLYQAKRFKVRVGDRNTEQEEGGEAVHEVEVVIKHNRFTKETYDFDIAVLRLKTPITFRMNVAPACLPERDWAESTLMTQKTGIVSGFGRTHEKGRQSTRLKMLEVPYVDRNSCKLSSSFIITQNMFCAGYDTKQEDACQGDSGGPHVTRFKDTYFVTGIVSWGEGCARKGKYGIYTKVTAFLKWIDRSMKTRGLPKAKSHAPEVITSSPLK
Sequence (P00742 41-179 limits assumed): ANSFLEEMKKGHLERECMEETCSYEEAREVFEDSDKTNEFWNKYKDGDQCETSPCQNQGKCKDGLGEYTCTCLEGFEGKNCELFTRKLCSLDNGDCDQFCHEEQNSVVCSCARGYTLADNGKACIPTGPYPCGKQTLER

Row | IC50 | Structure (SMILES)
1 | 75 nM | C#Cc1ccc(NC(=O)N2CCCN2C(=O)Nc2ccc(N3CCOCC3=O)c(Cl)c2)cc1 [Compound A1, 1-N-[(4-Ethynylphenyl)]-2-N-{[3-chloro-4-(3-oxomorpholin-4-yl)phenyl]}-pyrazolidine-1,2-dicarboxamide]
2 | 120 nM | O=C1COCCN1c1ccc(NC(=O)N2CCCN2C(=O)Nc2ccc(Cl)cc2)cc1Cl [Compound A2, 1-N-[(4-chlorophenyl)]-2-N-{[3-chloro-4-(3-oxomorpholin-4-yl)phenyl]}-pyrazolidine-1,2-dicarboxamide]
3 | 55 nM | O=C(Nc1ccc(Br)cc1)N1CCCN1C(=O)Nc1ccc(-n2ccccc2=O)cc1 [Compound A3, 1-N-[(4-bromophenyl)]-2-N-{[4-(2-oxo-2H-pyridin-1-yl)phenyl]}pyrazolidine-1,2-dicarboxamide]
